Results published in ChEMBL document CHEMBL1201862, “PubChem BioAssay data set” (2004).
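How tested: cells in 96-well plates exposed to compound for 48 hours at five concentrations. At the GI50, growth is halved.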 The source made the active and inactive calls. No stated cut-off is given here; in the data, active = GI50 up to about 1.1 µM and inactive = higher.

How the values were obtained:
Assay in all cases: NCI anticancer screen, dose series, 48 h
MDA-MB-435 = test system: MDA-MB-435
UO-31 = test system: UO-31
M14 = test system: M14
NCI-H23 = test system: NCI-H23
SF-295 = test system: SF-295
TK-10 = test system: TK-10
NCI-H226 = test system: NCI-H226
SNB-75 = test system: SNB-75
COLO 205 = test system: COLO 205
IGROV-1 = test system: IGROV-1
SN12C = test system: SN12C
MDA-N = test system: MDA-N
PC-3 = test system: PC-3
SF-539 = test system: SF-539
HT-29 = test system: HT-29
BT-549 = test system: BT-549
LOX IMVI = test system: LOX IMVI
CAKI-1 = test system: CAKI-1
SK-MEL-2 = test system: SK-MEL-2
SK-OV-3 = test system: SK-OV-3

Measured: GI50

CC[C@@H]1CC[C@@H]2[C@H](CC[C@]3(C)[C@@H](OS(=O)(=O)c4ccc(C)cc4)CC[C@@H]23)[C@H]1CO
inactive: MDA-MB-435 > 100 µM | UO-31 21.3 µM | M14 87.3 µM | NCI-H23 > 100 µM | SF-295 > 100 µM | TK-10 > 100 µM | NCI-H226 > 100 µM | SNB-75 91 µM | COLO 205 12.4 µM | IGROV-1 > 100 µM | SN12C 78.5 µM | MDA-N > 100 µM | PC-3 82 µM | SF-539 81.5 µM | HT-29 27.3 µM | BT-549 > 100 µM | LOX IMVI 23.8 µM | CAKI-1 > 100 µM

COc1ccccc1N1C(=O)/C(=C\c2cccc(Oc3ccccc3)c2)SC1c1ccccc1 (configuration not stated)
inactive: MDA-MB-435 28.6 µM | UO-31 51.3 µM | M14 24.4 µM | NCI-H23 18.3 µM | SF-295 18.7 µM | TK-10 > 100 µM | SNB-75 39.6 µM | COLO 205 15.3 µM | IGROV-1 21.1 µM | SN12C 30.2 µM | MDA-N 23.9 µM | SK-MEL-2 29.9 µM | PC-3 58.5 µM | SF-539 34.5 µM | HT-29 32.4 µM | SK-OV-3 47.4 µM | BT-549 29.8 µM | LOX IMVI 21.6 µM | CAKI-1 > 100 µM

CSC(=S)CC(O)[C@@H]1CC2c3ccccc3C1c1ccccc12 (some centres not stated)
inactive: MDA-MB-435 11.3 µM | UO-31 11.7 µM | M14 12.7 µM | NCI-H23 7.11 µM | SF-295 16.6 µM | TK-10 15.2 µM | NCI-H226 9.06 µM | SNB-75 > 10 µM | COLO 205 18.1 µM | IGROV-1 11.8 µM | SN12C 18.7 µM | MDA-N 11.7 µM | PC-3 5.83 µM | SF-539 17.9 µM | HT-29 4.33 µM | SK-OV-3 15.3 µM | BT-549 13.2 µM | LOX IMVI 6.35 µM

CC(C)(C)OC(=O)C(C1NC(C(=O)O)C(C)(C)S1)N1C(=O)c2ccccc2C1=O (configuration not stated)
inactive: MDA-MB-435 > 100 µM | UO-31 > 100 µM | M14 > 100 µM | NCI-H23 > 100 µM | SF-295 > 100 µM | TK-10 > 100 µM | SNB-75 > 100 µM | COLO 205 > 100 µM | IGROV-1 > 100 µM | SN12C > 100 µM | MDA-N > 100 µM | SK-MEL-2 > 100 µM | PC-3 > 100 µM | SF-539 > 100 µM | HT-29 > 100 µM | SK-OV-3 > 100 µM | BT-549 > 100 µM | LOX IMVI > 100 µM | CAKI-1 > 100 µM

COC(=O)c1ccc(/C=C2\Oc3cc(O)ccc3C2=O)cc1
inactive: MDA-MB-435 > 100 µM | UO-31 46.3 µM | M14 83.8 µM | NCI-H23 42.3 µM | SF-295 36.8 µM | TK-10 53 µM | NCI-H226 55.3 µM | SNB-75 39.4 µM | COLO 205 > 100 µM | IGROV-1 > 100 µM | SN12C 53.8 µM | MDA-N 67.3 µM | PC-3 91.4 µM | SF-539 > 100 µM | SK-OV-3 > 100 µM | BT-549 39.8 µM | CAKI-1 68.5 µM

CCOC(=O)c1ccc(NCC#CCN2CCCCC2)cc1
inactive: MDA-MB-435 > 100 µM | UO-31 > 100 µM | M14 59.2 µM | NCI-H23 > 100 µM | NCI-H226 > 100 µM | COLO 205 41.9 µM | IGROV-1 > 100 µM | SN12C > 100 µM | MDA-N 60.4 µM | SK-MEL-2 > 100 µM | PC-3 > 100 µM | SF-539 > 100 µM | HT-29 > 100 µM | SK-OV-3 > 100 µM | BT-549 > 100 µM | LOX IMVI > 100 µM

COC(=O)C1(Cc2ccc3c(c2)CCC3)Cc2ccc3c(c2C1)CCC3 (configuration not stated)
inactive: MDA-MB-435 12.7 µM | UO-31 18.7 µM | NCI-H23 1.48 µM | SF-295 20.7 µM | TK-10 49.7 µM | NCI-H226 21.1 µM | SNB-75 > 100 µM | COLO 205 19 µM | IGROV-1 21.1 µM | SN12C 17.5 µM | MDA-N 13.2 µM | PC-3 16.9 µM | SF-539 37.9 µM | HT-29 14.9 µM | SK-OV-3 52.8 µM | BT-549 21.6 µM | LOX IMVI 16.8 µM | CAKI-1 21.6 µM

O=C1/C(=C/c2ccccc2S)N=C(c2ccccc2)N1c1ccc2c(c1)Sc1cc(N3C(=O)/C(=C/c4ccccc4S)N=C3c3ccccc3)ccc1N2
inactive: MDA-MB-435 21.1 µM | UO-31 15.8 µM | M14 17.9 µM | SF-295 16.8 µM | TK-10 17.4 µM | SNB-75 15.8 µM | COLO 205 31.4 µM | IGROV-1 15.7 µM | SN12C 19.2 µM | MDA-N 23.8 µM | SK-MEL-2 23.8 µM | PC-3 21.4 µM | SF-539 11.8 µM | HT-29 34.4 µM | SK-OV-3 17.8 µM | BT-549 26.7 µM | LOX IMVI 20.3 µM | CAKI-1 18.7 µM

CCOC(=O)C1(C(=O)OCC)CC(=O)[C@@]2(C1)OCC[C@H]1OC(=O)C[C@H]12
inactive: MDA-MB-435 > 100 µM | UO-31 > 100 µM | M14 > 100 µM | NCI-H23 > 100 µM | SF-295 > 100 µM | TK-10 > 100 µM | SNB-75 > 100 µM | COLO 205 > 100 µM | IGROV-1 > 100 µM | SN12C > 100 µM | MDA-N > 100 µM | SK-MEL-2 > 100 µM | PC-3 > 100 µM | SF-539 > 100 µM | HT-29 > 100 µM | BT-549 > 100 µM | LOX IMVI > 100 µM | CAKI-1 > 100 µM

O=C(O)c1ccccc1C(=O)Nc1cc2c(cc1Br)-c1ccccc1C2=O
inactive: MDA-MB-435 > 100 µM | UO-31 > 100 µM | M14 > 100 µM | NCI-H23 > 100 µM | TK-10 > 100 µM | SNB-75 47.5 µM | COLO 205 68.5 µM | IGROV-1 > 100 µM | SN12C > 100 µM | MDA-N > 100 µM | SK-MEL-2 > 100 µM | PC-3 > 100 µM | SF-539 > 100 µM | HT-29 > 100 µM | SK-OV-3 > 100 µM | BT-549 > 100 µM | LOX IMVI 81.1 µM | CAKI-1 > 100 µM

CSc1ccc(/C=C2\N=C(c3ccccc3)N(c3nc4c(Cl)cc(Cl)cc4s3)C2=O)cc1
inactive: MDA-MB-435 16.6 µM | UO-31 22.2 µM | M14 25.7 µM | SF-295 24.3 µM | TK-10 39.2 µM | SNB-75 36.6 µM | COLO 205 33.4 µM | IGROV-1 35.3 µM | SN12C 24.8 µM | MDA-N 17 µM | SK-MEL-2 20.2 µM | PC-3 20.4 µM | SF-539 34.5 µM | HT-29 19.8 µM | SK-OV-3 25.9 µM | BT-549 21.5 µM | LOX IMVI 29.9 µM | CAKI-1 31 µM
